PubChem BioAssay (NCI)
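Interpolation was linear, between the two tested concentrations surrounding the appropriate level; five concentrations were tested over 48 hours in 96-well plates. GI50: concentration for 50% inhibition of growth. TGI: total growth inhibition.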

Columns and labels:
Assay in all cases: DTP human tumour cell line panel, 48 h
[1] = tested on: RPMI-8226 leukemia
[2] = tested on: CAKI-1 renal
[3] = tested on: HOP-92 NSCLC
[4] = tested on: A498 renal
[5] = tested on: UACC-257 melanoma
[6] = tested on: OVCAR-4 ovarian
[7] = tested on: SW-620 colon
[8] = tested on: SK-MEL-2 melanoma
[9] = tested on: PC-3 prostate
[10] = tested on: MALME-3M melanoma
[11] = tested on: SK-MEL-5 melanoma
[12] = tested on: SNB-75 CNS
[13] = tested on: MOLT-4 leukemia
[14] = tested on: U251 CNS
[15] = tested on: NCI-H226 lung
[16] = tested on: MDA-MB-231 breast
[17] = tested on: 786-0 renal
[18] = tested on: NCI-H23 lung
[19] = tested on: SF-268 CNS
[20] = tested on: MCF7 breast
[21] = tested on: HOP-62 NSCLC
[22] = tested on: KM12 colon
[23] = tested on: BT-549 breast
[24] = tested on: NCI/ADR-RES ovarian
[25] = tested on: SN12C renal
[26] = tested on: MDA-MB-435
[27] = tested on: HCC-2998 colon
[28] = tested on: HCT-116 colon
[29] = tested on: SF-295 CNS
[30] = tested on: K-562 leukemia
[31] = tested on: UO-31 renal
[32] = tested on: NCI-H460 lung
[33] = tested on: RXF 393 renal
[34] = tested on: NCI-H522 lung
[35] = tested on: HCT-15 colon
[36] = tested on: HT29 colon
[37] = tested on: COLO 205 colon
[38] = tested on: M14 melanoma
[39] = tested on: A549 NSCLC
[40] = tested on: HS 578T breast
[41] = tested on: SNB-19 CNS
[42] = tested on: TK-10 renal
[43] = tested on: LOX IMVI melanoma
[44] = tested on: OVCAR-5 ovarian
[45] = tested on: OVCAR-3 ovarian
[46] = tested on: SF-539 CNS
[47] = tested on: HL-60(TB) leukemia
[48] = tested on: IGROV1 ovarian
[49] = tested on: SK-MEL-28 melanoma
[50] = tested on: UACC-62 melanoma
[51] = tested on: CCRF-CEM leukemia
[52] = tested on: SK-OV-3 ovarian
[53] = tested on: OVCAR-8 ovarian
[54] = tested on: ACHN renal
[55] = tested on: T-47D breast
[56] = tested on: SR leukemia
[57] = tested on: DU-145 prostate
[58] = tested on: EKVX NSCLC

O=C1/C(=C/c2ccc([N+](=O)[O-])s2)Oc2ccc(Cl)cc21 showed a GI50 [1] of 0.298 µM, a TGI [1] of 0.97 µM and a GI50 [2] of 2.05 µM. The TGI [2] was 6.68 µM, the GI50 [3] was 0.176 µM and the TGI [3] was 0.519 µM. For the same compound, the GI50 [4] was 1.74 µM, the TGI [4] was 4.91 µM and the GI50 [5] was 0.63 µM. The TGI [5] was 2.25 µM, the GI50 [6] was 0.406 µM and the TGI [6] was 0.897 µM. For the same compound, the GI50 [7] was 0.206 µM, the TGI [7] was 0.49 µM and the GI50 [8] was 0.26 µM. For the same compound, the TGI [8] was 0.624 µM, the GI50 [9] was 0.216 µM and the TGI [9] was 0.593 µM. The GI50 [10] was 0.526 µM, the TGI [10] was 1.38 µM and the GI50 [11] was 0.343 µM. The TGI [11] was 0.86 µM, the GI50 [12] was 0.486 µM and the TGI [12] was 1.74 µM. For the same compound, the GI50 [13] was 0.371 µM, the TGI [13] was 2.47 µM and the GI50 [14] was 0.263 µM. It also gave a TGI [14] of 0.694 µM, a GI50 [15] of 1.39 µM and a TGI [15] of 3.93 µM. It also gave a GI50 [16] of 0.231 µM, a TGI [16] of 0.586 µM and a GI50 [17] of 0.887 µM. It also gave a TGI [17] of 3.21 µM, a GI50 [18] of 0.592 µM and a TGI [18] of 1.82 µM. For the same compound, the GI50 [19] was 0.405 µM, the TGI [19] was 1.53 µM and the GI50 [20] was 0.305 µM. It also gave a TGI [20] of 1.43 µM, a GI50 [21] of 0.775 µM and a TGI [21] of 3 µM. For the same compound, the GI50 [22] was 0.24 µM, the TGI [22] was 0.593 µM and the GI50 [23] was 0.248 µM. It also gave a TGI [23] of 0.682 µM, a GI50 [24] of 0.738 µM and a TGI [24] of 2.89 µM. For the same compound, the GI50 [25] was 0.593 µM, the TGI [25] was 1.79 µM and the GI50 [26] was 0.457 µM. The TGI [26] was 1.55 µM, the GI50 [27] was 0.515 µM and the TGI [27] was 1.33 µM. It also gave a GI50 [28] of 0.222 µM, a TGI [28] of 0.535 µM and a GI50 [29] of 0.999 µM. The TGI [29] was 2.98 µM, the GI50 [30] was 0.133 µM and the TGI [30] was 0.909 µM. The GI50 [31] was 0.152 µM, the TGI [31] was 0.295 µM and the GI50 [32] was 0.675 µM. The TGI [32] was 2.18 µM, the GI50 [33] was 0.375 µM and the TGI [33] was 1.11 µM. It also gave a GI50 [34] of 0.198 µM, a TGI [34] of 0.435 µM and a GI50 [35] of 0.192 µM. For the same compound, the TGI [35] was 0.55 µM, the GI50 [36] was 2.21 µM and the TGI [36] was 5.49 µM. The GI50 [37] was 0.527 µM, the TGI [37] was 1.36 µM and the GI50 [38] was 0.512 µM. It also gave a TGI [38] of 1.52 µM, a GI50 [39] of 0.533 µM and a TGI [39] of 2.45 µM. It also gave a GI50 [40] of 0.372 µM, a TGI [40] greater than 100 µM and a GI50 [41] of 0.512 µM. The TGI [41] was 1.55 µM, the GI50 [42] was 0.372 µM and the TGI [42] was 26.9 µM. It also gave a GI50 [43] of 0.239 µM, a TGI [43] of 0.598 µM and a GI50 [44] of 1.53 µM. For the same compound, the TGI [44] was 3.01 µM, the GI50 [45] was 0.229 µM and the TGI [45] was 0.48 µM. The GI50 [46] was 0.219 µM, the TGI [46] was 0.583 µM and the GI50 [47] was 0.423 µM. The TGI [47] was 2.15 µM, the GI50 [48] was 0.311 µM and the TGI [48] was 0.983 µM. It also gave a GI50 [49] of 0.336 µM, a TGI [49] of 0.881 µM and a GI50 [50] of 0.271 µM. It also gave a TGI [50] of 0.771 µM, a GI50 [51] of 0.273 µM and a TGI [51] of 0.72 µM. The GI50 [52] was 2.1 µM, the TGI [52] was 4.42 µM and the GI50 [53] was 0.33 µM. The TGI [53] was 4.91 µM, the GI50 [54] was 0.234 µM and the TGI [54] was 0.595 µM. It also gave a GI50 [55] of 0.309 µM, a TGI [55] of 1.64 µM and a GI50 [56] of 0.204 µM. For the same compound, the TGI [56] was 0.73 µM.
Work on COc1ccc(C(=O)CC(Cl)=C(Cl)Cl)cc1 yielded a GI50 [1] of 23.5 µM, a TGI [1] of 68.5 µM and a GI50 [2] of 23.2 µM. For the same compound, the TGI [2] was 53.5 µM, the GI50 [3] was 19.3 µM and the TGI [3] was 53.7 µM. For the same compound, the GI50 [4] was greater than 100 µM, the TGI [4] was greater than 100 µM and the GI50 [5] was 34.4 µM. For the same compound, the TGI [5] was greater than 100 µM, the GI50 [6] was 19.8 µM and the TGI [6] was 56.1 µM. For the same compound, the GI50 [7] was 33.5 µM, the TGI [7] was greater than 100 µM and the GI50 [8] was 44.4 µM. The TGI [8] was greater than 100 µM, the GI50 [9] was 26.7 µM and the TGI [9] was greater than 100 µM. It also gave a GI50 [10] of 20.4 µM, a TGI [10] of 43 µM and a GI50 [11] of 33.8 µM. For the same compound, the TGI [11] was greater than 100 µM, the GI50 [13] was 19.7 µM and the TGI [13] was 64.2 µM. The GI50 [14] was 36 µM, the TGI [14] was greater than 100 µM and the GI50 [15] was 34.1 µM. For the same compound, the TGI [15] was 85.7 µM, the GI50 [16] was 33.1 µM and the TGI [16] was greater than 100 µM. It also gave a GI50 [17] of 21.7 µM, a TGI [17] of 44.7 µM and a GI50 [18] of 23.3 µM. It also gave a TGI [18] of 47.1 µM, a GI50 [19] of 38.2 µM and a TGI [19] greater than 100 µM. It also gave a GI50 [20] of 53.4 µM, a TGI [20] greater than 100 µM and a GI50 [21] of 61.4 µM. For the same compound, the TGI [21] was greater than 100 µM, the GI50 [22] was 71.2 µM and the TGI [22] was greater than 100 µM. It also gave a GI50 [23] of 21.6 µM, a TGI [23] of 57.3 µM and a GI50 [24] of 25.2 µM. The TGI [24] was 59.4 µM, the GI50 [25] was 34.6 µM and the TGI [25] was greater than 100 µM. For the same compound, the GI50 [26] was 24.8 µM, the TGI [26] was 62.7 µM and the GI50 [57] was 31.5 µM. For the same compound, the TGI [57] was greater than 100 µM, the GI50 [28] was 22.2 µM and the TGI [28] was 63.4 µM. The GI50 [29] was 59.9 µM, the TGI [29] was greater than 100 µM and the GI50 [31] was 25.8 µM. The TGI [31] was 54.7 µM, the GI50 [32] was greater than 100 µM and the TGI [32] was greater than 100 µM. It also gave a GI50 [33] of 32 µM, a TGI [33] of 97.1 µM and a GI50 [34] of 34.3 µM. It also gave a TGI [34] of 81.5 µM, a GI50 [35] of 28 µM and a TGI [35] of 97.4 µM. The GI50 [36] was 22 µM, the TGI [36] was 83.5 µM and the GI50 [37] was 25.6 µM. The TGI [37] was 61.5 µM, the GI50 [38] was 27.5 µM and the TGI [38] was 66.1 µM. The GI50 [39] was greater than 100 µM, the TGI [39] was greater than 100 µM and the GI50 [40] was greater than 100 µM. The TGI [40] was greater than 100 µM, the GI50 [41] was 32.4 µM and the TGI [41] was greater than 100 µM. The GI50 [42] was 23.9 µM, the TGI [42] was 59.9 µM and the GI50 [43] was 19.2 µM. For the same compound, the TGI [43] was 43.4 µM, the GI50 [44] was 22.6 µM and the TGI [44] was 50.4 µM. It also gave a GI50 [45] of 20.6 µM, a TGI [45] of 41.2 µM and a GI50 [46] of 37.2 µM. The TGI [46] was greater than 100 µM, the GI50 [47] was 34.2 µM and the TGI [47] was 95 µM. It also gave a GI50 [48] of 28.3 µM, a TGI [48] of 75.9 µM and a GI50 [49] of 16 µM. For the same compound, the TGI [49] was 37.2 µM, the GI50 [50] was 21.7 µM and the TGI [50] was 49.9 µM. For the same compound, the GI50 [51] was 30.3 µM, the TGI [51] was greater than 100 µM and the GI50 [58] was 28.5 µM. The TGI [58] was greater than 100 µM, the GI50 [52] was greater than 100 µM and the TGI [52] was greater than 100 µM. The GI50 [53] was 33.2 µM, the TGI [53] was greater than 100 µM and the GI50 [54] was 20.1 µM. The TGI [54] was 41.4 µM, the GI50 [55] was 26.2 µM and the TGI [55] was 61.9 µM.
